Reference: PMC5766510, “Development of a PET radioligand for potassium channels to image CNS demyelination” (Scientific Reports, 2018)

Key:
[1] = Partition coefficient octanol-water (logD); assay type: physicochemical
Procedure: The partition coefficient octanol-water at pH 7.4 was measured by adding 0.1 mg of the compound to a 10 mL 50:50 mixture of octanol:PBS. The vial was shaken vigorously followed by 1 min centrifugation at 1,000 g to separate the phases. The drug concentration in each phase of the drug was calculated from the area under the peak on reverse phase HPLC (10 μL sample) using a calibration curve.

[2] = mouse, 1 h
[3] = system: K^+ channels in explanted mouse optic nerves; assay: Compound action potential (CAP) of dissected mouse optic nerves
Procedure: Therefore, we tested the effects of these compounds on the compound action potential (CAP) of dysmyelinated optic nerves from control and Shiverer mice (Fig. 2E).
Optic nerves were dissected from 12–16 week old Shiverer (Mbp^shi/shi) and control mice (Mbp^+/shi and Mbp^+/+). Compound action potentials (CAP) were recorded using suction electrodes as described by Stys et al.[91]. See SI for additional details.
CI95 = [Upper Limit. Lower Limit]; where Upper Limit = 10^(logEC50+s.d.) and Lower Limit = 10^(logEC50−s.d.). […]
Dissection of optic nerves: Optic nerves were dissected from 12-16 week old Shiverer (Mbpshi/shi) and control mice (Mbp+/shi and Mbp+/+). Mice were euthanized by CO2 overdose and the optic nerves were quickly dissected between the eyeball and the optic chiasm. The nerves […]
Optic nerve electrophysiology: Compound action potentials (CAP) from dysmyelinated nerves (Shiverer mice, Mbpshi/shi) and myelinated nerves (litermate controls, Mbp+/shi and Mbp+/+) were […]
between two suction electrodes (stimulus and recording electrodes) forming a tight seal on each end. Two additional electrodes were placed in the bath for reference. A supramaximal pulse (250 mV, 20 μs) was applied at the stimulating end of the nerve. The resulting CAP was amplified from the recording electrode using a high impedance low-noise amplifier (EG&G Princeton Applied Research Corporation) sampled at 100 kHz and filtered at 10 kHz. To assess […]
concentrations to the recording chamber after the CAP was allowed to stabilize for 5 min while […]
pulsing repeatedly. After each measurement, the chamber was washed for 5 min (flow 1 […]
mL/min) with oxygenated aCSF. […]
conduction and the temperature was monitored throughout the experiment. CAP recordings were acquired with a SBC6711 board (Innovative Integration) controlled by in-house written software. Analysis of the traces was done using an in-house software. The half-maximal […]
amplitude vs. concentration and fitted to the Hill equation using Origin. […]
Compound action potential of nerve recorded by suction electrode: a theoretical and experimental analysis. […]

[4] = estimated; cited from earlier work
in vitro = details: mouse, liver microsomes
[5] = Parallel artificial membrane permeability assay (PAMPA); details: PAMPA
[6] = Organ distribution of PET tracer in mice by gamma counting; assay type: in vivo; details: mouse, 30 min post intravenous injection, n = 4
Procedure: Once we had generated the ^18F-labeled drug, we evaluated the uptake of the tracer in mouse blood, brain, liver and kidneys 30 min and 2 h post intravenous administration using automatic gamma counting. […] The uptake in the brain 30 min post injection was higher than blood (standard uptake value (SUV) = 4.71 ± 0.81 vs. 3.27 ± 0.35, n = 4, P = 0.024) providing a suitable time window to conduct PET imaging studies.
50–60 uCi of the [^18F]3-F-4-AP tracer was injected via tail vein to eight 8-week-old female B6 albino mice. At the specified times, the mice were euthanized by anesthetic overdose. Following euthanasia blood was collected by cardiac puncture and transferred to EDTA coated tubes. Other organs (brain, liver and kidneys) were collected by dissection and transferred to glass tubes. Radioactivity was measured using an automatic gamma counter (^18F protocol) and corrected for organ weight and injected dose. Using the original tracer solution, 8 standard solutions ranging from 20 μCi to 10^−5 μCi were prepared, analyzed by gamma counting and used as a calibration curve to correlate peak area of the samples to concentration. SUV was calculated as SUV = (dose organ/organ weight)/(dose injected/body weight) with dose corrected for decay.

[7] = system: voltage-gated K^+ channels; assay: PET/CT imaging in healthy rats; assay type: in vivo, rat
From the text: In order to evaluate the potential use of [^18F]3-F-4-AP as a PET tracer for the brain, we conducted PET combined with computed tomography (PET/CT) imaging in healthy rats after tail vein injection of [^18F]3-F-4-AP (0.15–0.30 μCi/g). We chose rats instead of mice because their larger brain size allows better spatial resolution. […] In order to overcome the limited intrinsic resolution of PET, we conducted ex vivo autoradiography in rats injected with [^18F]3-F-4-AP (1–2 μCi/g).
PET/CT imaging studies were carried out on a Trifoil Triumph™ Trimodality Preclinical microPET/SPECT/CT Imaging System (Norridge, CA) equipped with a X-PET detector constructed from BGO crystals. Rats were anesthetized with a mixture of 2% isoflurane and […] and kept under anesthesia throughout the whole procedure. A CT image was acquired first (at 40 kV, 140-uA beam current, and 256 projections, approx. 5 min). After the CT, 50–150 µCi of [^18F]3-F-4-AP was infused as a bolus through a tail vein injection port and a 25, 30 or 90 min list-mode PET scan performed. PET data are acquired using a sensitivity 5.9%, 250- to 750-keV energy window and 12-ns timing window in list-mode format with spatial resolution of 1.6–2.0 mm (FWHM), which can be binned into 3-dimensional (3D) sinograms corresponding to total and true events, respectively. Images were reconstructed using Fourier rebinning followed by a 2-dimensional ordered-subsets expectation maximization algorithm (OSEM) (4 iterations with 15 subsets). Reconstructed images were processed by using VivoQuant (inviCRO, LLC, Boston) version 2.1. Time activity curves were generated by processing the PET data in 5 min frames.

[8] = system: voltage-gated K^+ channels; assay: Detection of demyelination by PET in LPC-injected rats; assay type: in vivo, rat; details: PET 0-25 min
Procedure: After conducting PET imaging with [^18F]3-F-4-AP in healthy rats, we sought to evaluate the capability of this tracer to detect demyelination using the LPC-injection model. The main advantages of this model are that the localization of the lesion is known, that the time course of demyelination is well established, that there is no inflammation or disruption of the BBB, and that the signal in the lesioned area can be directly compared to the contralateral control area[69]. […] Rats were injected with 3 μL of saline (control group) or 1% LPC in saline (demyelination group) on the right side of the cerebellum, targeting the cerebellar white matter. Seven days post injection, which corresponds to the peak of demyelination, the animals were scanned using PET (0–25 min). Several hours after the PET scan, the animals were reinjected with [^18F]3F4AP and their brains studied by ex vivo autoradiography as previously described. Finally, following autoradiography the same tissue sections were stained with LFB. To analyze the data, we placed a spherical voxel of ~1.5 mm radius centered at the injection coordinates and compared the signal in this region with that of an equal size region at the contralateral hemisphere (Fig. 6A). […] Furthermore, there was excellent correlation between PET, ex vivo autoradiography and histological staining for myelin (Fig. 6C). For one animal, we performed serial autoradiography and staining throughout the whole cerebellum (Sup. Fig. 2). As shown in this figure, it is possible to clearly delineate where the lesion starts and finishes based on the autoradiographic signal.
A power analysis (power 0.8, α = 0.05) based on the autoradiography results was used to determine the number of rats needed to detect a statistically significant change in signal. Randomly selected rats were injected with lysolecithin or saline intracranially as described above. 0–25 min dynamic PET scan was performed 6–8 days post intracranial injection (peak of demyelination) after administration of 0.3–0.5 μCi/g. Within 24 h of the PET scan, the rats received a second dose of tracer (1–2 uCi/g), the animals were sacrificed 25 min post injection and their brains processed for autoradiography as described above. Image analyst was not blind to the treatment group. Post autoradiography, LFB staining was performed to assess demyelination. Animals showing physical damage to the brain due to the injection were excluded from the study. Brain ROI analysis was performed using reference atlas with VivoQuant version 2.1 (inviCRO, LLC, Boston).

[9] = system: voltage-gated K^+ channels; assay: PET imaging in healthy Rhesus macaques; assay type: in vivo, Rhesus monkeys (macaca mulatta); details: Rhesus macaques
Procedure: Whole body PET/CT imaging was carried out on a Siemens mCT PET/CT. Monkeys were sedated with ketamine and intubated. Following intubation monkeys were placed in prone position on the scanner bed face forward with their head immobilized in a stereotaxic frame. The animals were then anesthetized with 1% isoflurane and kept under anesthesia throughout the whole procedure. A CT image was acquired first (approx. 5 min). After the CT, 5 mCi in 8 mL of saline of [^18F]3-F-4-AP was infused as a bolus through the cubital vein. Scans were obtained in list mode and reconstructed with a 3D ordinary Poisson OSEM algorithm as 30 frames of data (2 × 15 secs, 4 × 30 secs, 8 × 60 secs, 8 × 120 secs, 8 × 240 secs). All activities were decay-corrected to the time of injection of the radiopharmaceutical. Reconstructed images were processed using VivoQuant. ROIs for the major organs were hand drawn based on the CT and used to calculate time-activity curves.
Focused high-resolution brain imaging in Rhesus macaques: brain PET imaging was carried out on a Siemens HRRT PET scanner. Monkeys were sedated with ketamine and intubated. Following intubation monkeys were placed in prone position on the scanner bed face forward with their head immobilized in a stereotaxic frame. The animals were then anesthetized with 1% isoflurane and kept under anesthesia throughout the whole procedure. Monkeys received 5 mCi of [^18F]3-F-4-AP as a bolus through the cubital vein. Scans were obtained in list mode and reconstructed with a 3D ordinary Poisson OSEM algorithm as […] frames of data (8 × 15 secs, 8 × 30 secs, 16 × 60 secs, 16 × 120 secs, 16 × 240 secs). All activities were decay-corrected to the time of injection of the radiopharmaceutical. Reconstructed images were processed using VivoQuant. The Rhesus brain atlas from VivoQuant was fitted to the data and used to calculate time-activity curves for 43 different brain regions.

[10] = LPC-injected rats, 7 days post injection, n = 4
[11] = saline (vehicle only)-injected rats, n = 3

SMILES: Nc1ccncc1 [4-AP, 4-aminopyridine]
- logD: experimental partition coefficient octanol:water ([1]; pH 7.4): 0.21
- logD ([1]; pH 7.4, logD: experimental partition coefficient octanol:water): 0.23
- remaining in plasma [2]: > 90%
- increases of the CAP amplitude ([3]; dysmyelinated nerves): 2–4 fold
- EC50 ([3]; increase of maximum CAP amplitude, dysmyelinated (Shiverer) optic nerves, 22.2 °C, read-out: Half-maximal effective concentration (EC50)): 59.2 µM
- increases in amplitude and duration of the action potential ([3]; normally myelinated nerves): < 5%
- concentration in the cerebrospinal fluid of patients taking the drug [4]: around 50 nM
- half-life (in vitro): 53 ± 10 min
- Papp [5]: 0.236 ± 0.003 ×10⁻⁶ cm/s

SMILES: Nc1ccncc1[18F] [[^18F]3-F-4-AP]
- standard uptake value (SUV) in blood [6]: 3.27 ± 0.35
- standard uptake value (SUV) in brain [6]: 4.71 ± 0.81
- time of peak in brain time-activity curve ([7]; healthy rats, 0-90 min scan): ≤ 5 min
- SUV in cerebellum ([7]; healthy rats, 0 to 30 min): 2.09 ± 0.44
- SUV in cortex ([7]; healthy rats, 0 to 30 min): 3.24 ± 0.70
- mean SUV for the whole brain ([7]; healthy rats, 0 to 30 min, n = 3): 2.91 ± 0.65
- defluorination in vivo ([7]; rats, no radioactivity in skull, teeth or bone): does not undergo defluorination in vivo
- SUV, control side of cerebellum [8, 10]: 2.60 ± 0.21
- SUV, injected side of cerebellum [8, 10]: 3.54 ± 0.53
- SUV, control side of cerebellum [8, 11]: 2.67 ± 0.77
- SUV, injected side of cerebellum [8, 11]: 2.59 ± 0.78
- peak SUV in selected brain regions [9]: 3.2–5.5
- time of peak SUV in selected brain regions [9]: 2 to 5 min
- peak SUV for the whole brain ([9]; within the first five minutes): around 4
- defluorination in vivo ([9]; lack of bone uptake): not defluorinated in vivo
